Data from US20110250262A1, “METHOD FOR PRODUCING LIPOSOME AND METHOD FOR DISSOLVING CHOLESTEROL” (BIOMEDCORE, INC., priority 2008, published 2011).

Experiment: Visual examination of dissolution of phospholipid and cholesterol in sucrose solution containing t-BuOH during cooling from 80° C.
Format: physicochemical
Conditions: cooled from 80° C.
Method: […] […] The solution was in the white opaque state at 80° C. Next, the temperature control of the water bath was off while still stirred, so that the solution was slowly cooled down at room temperature. It took about 90 min for the temperature of the water bath to be cooled from 80° C. to 35° C. The solution, which was in the white opaque state at 80° C., turned into a slightly pale transparent state around at 72° C., and the transparency persisted until the temperature fell to around 62° C. From around 62° C., the solution started to become white opaque again, turning into a completely white opaque state at 58° C. This change of state was reversible: the similar change of state was observed when the temperature was gradually raised from room temperature.
This state persisted until the temperature fell down to about 35° C., where the solution suddenly changed into a white opaque state.

[1] = 200 mg cholesterol with 380 mg DPPC in 20 mL 10 wt/vol % sucrose solution + 4.25 mL t-BuOH

| Lower temperature of the transparent (dissolved) state of the solution [1] | Upper temperature of the transparent (dissolved) state of the solution [1] [°C] | SMILES | State of the aqueous solution (dissolution), cholesterol alone (40 mg cholesterol alone in 4 mL 10 wt/vol % sucrose solution + 0.85 mL t-BuOH) | State of the aqueous solution (dissolution), DPPC alone (75.9 mg DPPC alone in 4 mL 10 wt/vol % sucrose solution + 0.85 mL t-BuOH) |
| --- | --- | --- | --- | --- |
| around 62 °C | ~72 | CC(C)CCC[C@@H](C)[C@H]1CC[C@H]2[C@@H]3CC=C4C[C@@H](O)CC[C@]4(C)[C@H]3CC[C@]12C [cholesterol, Cholesterol] | the solution never became transparent at any temperature |  |
|  |  | CCCCCCCCCCCCCCCC(=O)OC[C@H](COP(=O)([O-])OCC[N+](C)(C)C)OC(=O)CCCCCCCCCCCCCCC [DPPC, L-α-dipalmitoylphosphatidylcholine] |  | transparent state between 80 °C and 50 °C |
